Experimental data: patent US9657013B2, “Inhibitors of hepatitis B virus covalently closed circular DNA formation and their method of use” (priority 2012, dated 2017)

Experiments:
[1] = tested on: HBV cccDNA; assay: cccDNA inhibition assay (Southern blot of Hirt DNA); format: cell-based, hepatitis B virus; settings: for levels of HBV cccDNA and DP-rcDNA in cell cultures / EC50: HepDES19 cells; for levels of HBV cccDNA and DP-rcDNA in cell cultures: day 12, figure legend; for EC50: 288 h, harvested at day 12, read-out: EC50 of reduction of cccDNA
Method: Cell cultures: HepG2.2.15 cells were maintained in DMEM/F12 medium (Mediatech, Manassas, Va.) supplemented with 10% fetal bovine serum, 100 U/ml penicillin and 100 μg/ml streptomycin, plus 400 μg/ml G418. Tetracycline inducible HBV producer cells, specifically HepDE19 and HepDES19 cells, were maintained in the same way as HepG2.2.15, but with the addition of 1 μg/ml tetracycline (Guo, H., D. Jiang, T. Zhou, A. Cuconati, T. M. Block, and J. T. Guo. 2007). To initiate HBV replication and cccDNA formation in HepDE19 and HepDES19 cells, tetracycline was withdrawn from the culture medium and the cells were cultured for the indicated time period.
Viral nucleic acid analysis: Total cellular RNA was extracted with TRIzol reagent (Invitrogen, Grand Island, N.Y.) by following manufacturer's directions. Ten microgram of total cellular RNA was resolved in 1.5% agarose gel containing 2.2 M formaldehyde and transferred onto Hybond-XL membrane (GE Healthcare, Piscataway, N.J.) in 20×SSC buffer. Intracellular hepadnaviral core DNA and cccDNA (Hirt DNA) were extracted as described previously (Guo, H., D. Jiang, T. Zhou, A. Cuconati, T. M. Block, and J. T. Guo. 2007. Guo, H., D. Jiang, T. Zhou, A. Cuconati, T. M. Block, and J. T. Guo. 2007. Guo, H., R. Mao, T. M. Block, and J. T. Guo. 2010. Guo, H., W. S. Mason, C. E. Aldrich, J. R. Saputelli, D. S. Miller, A. R. Jilbert, and J. E. Newbold. 2005). Half of the DNA samples recovered from one well of a 6-well-plate were resolved by electrophoresis into a 1.2% agarose gel and blotted onto Hybond-XL membrane. Membranes were probed with either an α-^32P-UTP (800 Ci/mmol, Perkin Elmer) labeled hepadnaviral minus (detecting DNA) or plus strand (detecting RNA) specific full-length riboprobe and exposed to a phosphorimager screen (Fuji Film, Tokyo, Japan). Hybridization signals were visualized by Typhoon FLA-7000 (GE Healthcare) and quantified with ImageQuantTL software (GE Healthcare). […]
Identification of compounds that inhibits cccDNA accumulation in HepDES19 cells: Compounds were tested on HepDES19 cells, which have a higher level of cccDNA production than HepDE19 cells (Guo, H., D. Jiang, T. Zhou, A. Cuconati, T. M. Block, and J. T. Guo. 2007). Briefly, after withdrawal of tetracycline, HepDES19 cells were left untreated, or were treated with compound at serial concentrations; tetracycline-free media was changed every other day with fresh compound supplementation. The concentration of DMSO in all experimental groups was normalized at 0.1%. The cells were harvested at day 12, viral RNA (top panel), core DNA (middle panel), and Hirt DNA (DP-rcDNA and cccDNA) (bottom panels) were extracted and analyzed by Northern blot and Southern blot, respectively. Shorter exposure of the Hirt DNA blot was used for the quantitative determination of DP-rcDNA signals. […] The reduction between DP-rcDNA and cccDNA was proportional compared with untreated control. […] Liu, C. P. Hu, and C. Chang. 2005. Guo, H., T. Zhou, D. Jiang, A. Cuconati, G. H. Xiao, T. M. Block, and J. T. Guo. 2007. Zhou, T., H. Guo, J. T. Guo, A. Cuconati, A. Mehta, and T. M. Block. 2006).

[2] = tested on: HBV Dp-rcDNA and cccDNA; assay: stability of HBV DP-rcDNA and cccDNA; format: cell-based, hepatitis B virus

Row | SMILES | levels of HBV cccDNA and DP-rcDNA in cell cultures [1] | EC50 ([1]; Hepatitis B virus) | inhibition at 0.3 µM ([1]; Hepatitis B virus, Concentration 0.3 μM, read-out: cccDNA inhibition % Reduction) | inhibition at 1 µM ([1]; Hepatitis B virus, Concentration 1 μM, read-out: cccDNA inhibition % Reduction) | inhibition at 3 µM ([1]; Hepatitis B virus, Concentration 3 μM, read-out: cccDNA inhibition % Reduction) | stability of HBV Dp-rcDNA and cccDNA [2] | cccDNA inhibition % Reduction ([1]; Concentration 1 μM, 1 µM) | cccDNA inhibition % Reduction ([1]; Concentration 3 μM, 3 µM) | cccDNA inhibition % Reduction ([1]; Concentration 10 μM, 10 µM)
1 | Cc1nc2cc(NC(=O)c3ccc(S(=O)(=O)N(C)Cc4ccccc4)cc3)ccc2s1 [CCC-0346, 4-(Benzyl-methyl-sulfamoyl)-N-(2-methyl-benzothiazol-5-yl)-benzamide] | reduces | 3 µM | 20% | 30% | 60% | did not alter | – | – | –
2 | O=C(CN(c1cc(C(F)(F)F)ccc1Cl)S(=O)(=O)c1ccccc1)NCc1ccncc1 [CCC-0975, 2-[Benzenesulfonyl-(2-chloro-5-trifluoromethyl-phenyl)-amino]-N-pyridin-4-ylmethyl-acetamide] | reduces | 10 µM | – | – | – | did not alter | 10% | 20% | 70%
